Patent US20240226001A1, “Contact Lenses And Other Eye-Contacting Matrices Carrying Mitochondrially-Targeted Antioxidants” (Mitotech S.A., priority 2015, published 2024)
Where “and” joins values, the source holds several entries; their conditions need not be identical. Identical values can stand only once. Like-named read-outs stand apart in the source and are kept apart here.

Legend:
[1] = Adsorption of MTCs on a matrix from PBS versus 50% ethanol, HPLC (Example 4); assay type: physicochemical; details: 250 nM solution in dark glass vials; adsorption in 50% ethanol negligible
Experimental: It must be noted that SkQ3 differs from SkQ1 by the antioxidant moiety (A moiety in the formula I—see above), while SkB1 differs from SkQ1 by both the linker (L moiety) and targeting moiety (B moiety). So in this experiment, variations in all 3 parts of MTC molecule were successfully used.
The experiment was conducted as follows: 990 μl of phosphate buffered saline (PBS) or 50% water-ethanol solution (SkQ adsorption in 50% ethanol is negligible) was placed in dark glass chromatography vials (Waters, p/n 186000847c). 10 ul of 25 μM SkQ solution in ethanol was then added to each vial, yielding a 250 nM solution. The vials were vigorously mixed and the SkQ concentration in each vial (100 μl samples) was analyzed by HPLC using a Luna C 18 (2), Phenomenex, 250 MM '4.6 mm column with a sorbent particle size of 5 μm. The liquid phase used was acetonitrile:water (56:44), and the flow speed was 1 ml/min. at 25° C. UV detection was performed at A260.

rabbit eyes = experiment: SkQ1 content of experimental lenses taken from rabbits eyes (Example 3); assay type: in vivo; details: for SkQ1 conc. in experimental lenses: 50% acetonitrile extract; for SkQ1 conc. in experimental lenses / SkQ1 amount in experimental lenses: single samples; for Average SkQ1 amount in experimental lenses: average of 2 samples
Experimental: (§1) The experiment was performed as follows: contact lenses were supplemented with SkQ1 as described in Example 2, then some lenses were placed on rabbit eyes and some lenses left aside in saline solution. At certain time points (see below in the table 3) contact lenses were removed from rabbits' eyes (experimental lenses) or saline solution (control lenses) and such rabbits were euthanized and their cornea were taken for SkQ1 content analysis. Then SkQ1 was extracted from the collected lenses and cornea samples using 50% acetonitrile solution and the SkQ1 amount in the extracts was determined using LCMS/MS.

[2] = SkQ1 content of control lenses (intact lenses kept in saline solution) (Example 3); assay type: physicochemical; details: for SkQ1 conc. in control lenses: 50% acetonitrile extract
Experimental: as §1

rabbit cornea [3] = experiment: SkQ1 concentration in rabbit cornea after SkQ1-supplemented contact lens (Example 3); assay type: in vivo; details: for SkQ1 nM in cornea / SkQ1 ng per g of cornea / SkQ1 concentration in the cornea (extract): single samples
Experimental: as §1

[4] = as above; assay type: in vivo; details: rabbit; for concentration at 30 min / concentration at 1 h / concentration at 2 h: topical; for concentration at 30 min: 30 min after lens placement; for concentration at 1 h: 1 hour after lens placement; for concentration at 2 h: 2 hours after lens placement
Experimental: as §1

rabbit cornea [5] = experiment: SkQ1 concentration in rabbit cornea after instillation of eye drops (control experiment); assay type: in vivo; details: eye drops containing 1.55 μg/mL of SkQ1, FIG. 2B
Experimental: Thus SkQ1 was efficiently transferred from the experimental lens into the eye. In the control experiment, SkQ1 was administered into the rabbit eye by instillation of eye drops containing 1.55 μg/mL of SkQ1. At certain time points, samples of rabbit cornea were taken and analyzed for SkQ1 content using LCMS/MS. […] Thus, the mode of accumulation of SkQ1 in the cornea is different when SkQ1 is administered via contact lenses (compare graphs on FIG. 2A and FIG. 2B).

[6] = Adsorption of SkQ1 from saline on soft disposable contact lens, retention in saline, extraction with 50% acetonitrile (Example 2); assay type: physicochemical
Experimental: Lens pre-wash: soft disposable contact lenses were thoroughly rinsed with saline solution (0.9% NaCl) and incubated in this solution overnight. Preparation of 2.5 μM SkQ1 solution: 4 mL of saline solution was placed in dark glass vials. 40 μL of 500 μM SkQ1 solution in 50% ethanol was added into each vial yielding 2.5 μM SkQ1 solution. Solution in the vial was thoroughly mixed and then incubated overnight to yield A1 series solution. Then aliquots of A1 series were collected from these vials.
During the experiment a pre-washed contact lens was placed into a glass vial with 2.5 uM SkQ1 solution and incubated at +4° C.-+8 °C for 4 days. Then the contact lenses were removed from the 2.5 μM SkQ1 solution, rinsed with saline solution and placed into fresh saline solution and incubated overnight at +4° C.-+8° C. to yield A2 series solution. Aliquots of the A2 series solution were collected from the vials where lenses were incubated in 2.5 μM SkQ1 solution.
After the above described overnight lens incubation in saline solution, lenses were placed in vials containing 500 μL of 50% acetonitrile and mixed during 1 hour at +25° C. Then aliquots of this acetonitrile solution was collected (A3 series).
The content of SkQ1 in the collected aliquots was analyzed using LCMS/MS.

[7] = cornea (50% acetonitrile extract), single samples, read-out: SkQ1 concentration in the cornea (extract)
[8] = cornea, average of 2 samples, read-out: SkQ1 Aver. nM in cornea
[9] = cornea, single samples, read-out: SkQ1 nM in cornea
[10] = cornea, single samples, read-out: SkQ1 ng per g of cornea
[11] = A1 series: 2.5 μM SkQ1 saline solution before lens
[12] = A2 series: saline solution after lens incubation
[13] = A3 series: 50% acetonitrile extract of lens, 1 hour at +25° C.

Question: With `COc1ccc2c(CC(=O)OCCCCCCCC3=CC(=O)C(C)=C(C)C3=O)c3[n+](cc2c1OC)CCc1cc2c(cc1-3)OCO2` [SkQB1] as the compound, how does the “Concentration in PBS as % of the concentration in 50% ethanol” value [1] read?
Answer: Its value is 63.8%.

Question: Which “Concentration in PBS as % of the concentration in 50% ethanol” value [1] does the source give for `CC1=C(C)C(=O)C(CCCCCCCCCC[P+](c2ccccc2)(c2ccccc2)c2ccccc2)=C(C)C1=O` [SkQ3] here?
Answer: Its value is 29.6%.

Question: What does the source list for `CC1=C(C)C(=O)C(CCCCCCCCCC[P+](c2ccccc2)(c2ccccc2)c2ccccc2)=CC1=O` [SkQ1]?
Answer: Concentration in PBS as % of the concentration in 50% ethanol [1]: 51.7%; SkQ1 conc. in experimental lenses (rabbit eyes; 30 min on rabbit eye): 2.868 µg/mL and 3.006 µg/mL; Average SkQ1 amount in experimental lenses (rabbit eyes; 30 min on rabbit eye): 2.38 nmoles/sample; SkQ1 amount in experimental lenses (rabbit eyes; 30 min on rabbit eye): 2.324 nmoles/sample and 2.436 nmoles/sample; Amount of SkQ1 in the contact lens placed on the eye over time (rabbit eyes; 30 min to 6 hours, FIG. 1): decreased with time; SkQ1 conc. in experimental lenses (rabbit eyes; 1 hour on rabbit eye): 3.339 µg/mL and 3.200 µg/mL; Average SkQ1 amount in experimental lenses (rabbit eyes; 1 hour on rabbit eye): 2.65 nmoles/sample; SkQ1 amount in experimental lenses (rabbit eyes; 1 hour on rabbit eye): 2.706 nmoles/sample and 2.593 nmoles/sample; SkQ1 conc. in experimental lenses (rabbit eyes; 2 hours on rabbit eye): 2.77 µg/mL and 2.854 µg/mL; Average SkQ1 amount in experimental lenses (rabbit eyes; 2 hours on rabbit eye): 2.279 nmoles/sample; SkQ1 amount in experimental lenses (rabbit eyes; 2 hours on rabbit eye): 2.244 nmoles/sample and 2.313 nmoles/sample; SkQ1 conc. in experimental lenses (rabbit eyes; 6 hours on rabbit eye): 1.448 µg/mL and 1.229 µg/mL; Average SkQ1 amount in experimental lenses (rabbit eyes; 6 hours on rabbit eye): 1.114 nmoles/sample; SkQ1 amount in experimental lenses (rabbit eyes; 6 hours on rabbit eye): 1.174 nmoles/sample and 1.053 nmoles/sample; SkQ1 amount in control lenses ([2]; 30 min in saline): 4.611 nmoles/sample; SkQ1 conc. in control lenses ([2]; 30 min in saline): 5.690 µg/mL; SkQ1 concentration on intact control lenses left in saline over time ([2]; 30 min to 6 hours, FIG. 1): stayed stable; SkQ1 amount in control lenses ([2]; 1 hour in saline): 4.966 nmoles/sample; SkQ1 conc. in control lenses ([2]; 1 hour in saline): 6.129 µg/mL; SkQ1 amount in control lenses ([2]; 2 hours in saline): 5.107 nmoles/sample; SkQ1 conc. in control lenses ([2]; 2 hours in saline): 6.302 µg/mL; SkQ1 amount in control lenses ([2]; 6 hours in saline): 4.377 nmoles/sample; SkQ1 conc. in control lenses ([2]; 6 hours in saline): 5.052 µg/mL; SkQ1 nM in cornea (rabbit cornea [3]; 30 min after lens placement): 4.96 nM; SkQ1 ng per g of cornea (rabbit cornea [3]; 30 min after lens placement): 3.06 ng per g of cornea; SkQ1 concentration in the cornea (extract) (rabbit cornea [3]; 30 min after lens placement): 0.51 ng/mL; SkQ1 nM in cornea (rabbit cornea [3]; 1 hour after lens placement): 14.30 nM; SkQ1 ng per g of cornea (rabbit cornea [3]; 1 hour after lens placement): 8.82 ng per g of cornea; SkQ1 concentration in the cornea (extract) (rabbit cornea [3]; 1 hour after lens placement): 1.47 ng/mL; SkQ1 nM in cornea (rabbit cornea [3]; 2 hours after lens placement): 13.32 nM; SkQ1 ng per g of cornea (rabbit cornea [3]; 2 hours after lens placement): 8.22 ng per g of cornea; SkQ1 concentration in the cornea (extract) (rabbit cornea [3]; 2 hours after lens placement): 1.37 ng/mL; Concentration of SkQ1 in the rabbits' eye cornea over time (rabbit cornea [3]; administered via contact lens, FIG. 2A): gradually increased; concentration at 30 min [4, 7]: 0.64 ng/mL; concentration at 1 h [4, 7]: 1.56 ng/mL; concentration at 2 h [4, 7]: 1.46 ng/mL; concentration at 6 h ([4]; cornea, other: SkQ1-supplemented contact lens placed on the eye, 6 hours after lens placement, average of 2 samples, read-out: SkQ1 Aver. nM in cornea): 17.8 nM; concentration at 30 min [4, 8]: 5.59 nM; concentration at 30 min [4, 9]: 6.22 nM; concentration at 30 min [4, 10]: 3.84 ng/g; concentration at 1 h [4, 8]: 14.7 nM; concentration at 1 h [4, 9]: 15.2 nM; concentration at 1 h [4, 10]: 9.36 ng/g; concentration at 2 h [4, 8]: 13.8 nM; concentration at 2 h [4, 9]: 14.2 nM; concentration at 2 h [4, 10]: 8.76 ng/g; Time of maximum SkQ1 concentration in cornea (rabbit cornea [5]): 30 min; Calculated total SkQ1 amount in the vial, M ± SE (n = 9) [6, 11]: 3.69 µg and 3.69 ± 0.11 µg; SkQ1 concentration found, M ± SE (n = 9) [6, 11]: 0.97 ± 0.03 µg/mL; Calculated total SkQ1 amount in the vial, M ± SE (n = 9) [6, 12]: 0.19 µg and 0.19 ± 0.07 µg; SkQ1 concentration found, M ± SE (n = 9) [6, 12]: 0.1 ± 0.04 µg/mL; Calculated total SkQ1 amount in the vial (=total SkQ1 amount extracted from the lens), M ± SE (n = 9) [6, 13]: 2.5 µg and 2.5 ± 0.08 µg; SkQ1 concentration found, M ± SE (n = 9) [6, 13]: 9.9 ± 0.33 µg/mL
